Patent publication US5786332A, “Cytokine restraining agents and methods of use in pathologies and conditions associated with altered cytokine levels” (Trega Biosciences, Inc., priority 1995, dated 1998)

Tested on: Sprague-Dawley rats
Assay: Cyclosporine-induced nephrotoxicity
Type: in vivo
From the text: B. Cyclosporine-Induced Nephrotoxicity: This experiment as performed to ascertain if EX-2 can mitigate the reduction in glomerular filtration rate (GFR) and renal blood flow, as well as the dysfunction in fluid and electrolyte homeostasis induced by immunosuppressive treatment with cyclosporine A.
In the first study, male Sprague-Dawley rats (n=43) with a weight range of 240-290 g at the initiation of the cyclosporine A (CsA) treatment were divided into 4 weight matched groups. The groups were as follows: (1) Control: no CsA, no EX-2, treatment only with CsA vehicle (PBS) PO and EX-2 vehicle (also PBS) IP; (2) CsA: treatment with CsA (50 mg/kg in PBS administered PO daily at 0830 hr for 9 days) and IP injections of PBS (Ex-2 vehicle); (3) CsA and 50 μg: CsA treatment identical to group 2 with the addition of EX-2 (50 μg/kg IP administered daily at 0800 and 1700 hr in EX-2 vehicle); and (4) CsA and 500 μg: CsA treatment identical to groups 2 and 3, and EX-2 treatment protocol similar to group 3 except that the dose of EX-2 was 500 μg/kg BW. After deep anesthesia was assured, the rats were cannulated in the trachea (PE 240) jugular vein, femoral artery, and bladder (PE 50 for the previous 3 cannulations).After cannulation, infusion of ^3 H-inulin was initiated 50 min prior to the measurement period to assess glomerular filtration rate, renal blood flow and plasma flow. Renal blood flow was determined by the inulin extraction technique. At the end of the study, the kidneys were removed for histological analysis.
In the second study, male Sprague-Dawley rats (n=31) with a weight range of 240-290 g at the time of initiation of the cyclosporine treatment were divided into 4 weight-matched groups. […] Renal hemodynamics were determined and extracellular fluid volumes were also assessed.
In the second study, where extracellular fluid volumes (ECF) were measured, there were no differences in ECF among control and treatment groups (27.6±1.9 in control, 27.5±1.7 in CsA and vehicle, 26.2±0.9 in CsA+200 μg/kg EX-2, and 25.7±1.4% in CsA+500 μg/kg EX-2). […]

Substance: Ac-Nle-Gln-His-(D)Phe-Arg-(D)Trp-Gly-NH2 [EX-2]
- Renal blood flow in CsA-treated rats (EX-2 IP twice daily with CsA, both studies): improved blood flow to values not different from control
- GFR in CsA-treated rats (compared to CsA and vehicle controls, both studies): significantly increased GFR
- Urinary protein excretion in CsA-treated rats (compared to CsA-treated rats): did not increase urinary protein excretion
